Data: ChEMBL document CHEMBL1201862, “PubChem BioAssay data set” (2004)
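Where inhibition never reached the appropriate level, the endpoint shown equals the highest concentration tested. Otherwise, values were interpolated linearly from a five-concentration, 48-hour dose response in 96-well plates. GI50 = concentration required for 50% inhibition of growth.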 Calls of active or inactive are those of the source. Rule as the data show it: active = GI50 up to about 1.1 µM and inactive = higher.

How the values were obtained:
Assay in all cases: inhibition of tumour cell growth, NCI panel, 48 h
SNB-19 = test system: SNB-19
U-251 = test system: U-251
SK-MEL-28 = test system: SK-MEL-28
NCI-H226 = test system: NCI-H226
NCI-H23 = test system: NCI-H23
PC-3 = test system: PC-3
SR = test system: SR
HOP-62 = test system: HOP-62
Hs-578T = test system: Hs-578T
CCRF-CEM = test system: CCRF-CEM
Malme-3M = test system: Malme-3M
TK-10 = test system: TK-10
SF-295 = test system: SF-295
MDA-MB-435 = test system: MDA-MB-435
OVCAR-4 = test system: OVCAR-4
HT-29 = test system: HT-29
MOLT-4 = test system: MOLT-4
OVCAR-3 = test system: OVCAR-3
T47D = test system: T47D
A549 = test system: A549

Structure (SMILES) | GI50 (SNB-19) | GI50 (U-251) | GI50 (SK-MEL-28) | GI50 (NCI-H226) | GI50 (NCI-H23) | GI50 (PC-3) | GI50 (SR) | GI50 (HOP-62) | GI50 (Hs-578T) | GI50 (CCRF-CEM) | GI50 (Malme-3M) | GI50 (TK-10) | GI50 (SF-295) | GI50 (MDA-MB-435) | GI50 (OVCAR-4) | GI50 (HT-29) | GI50 (MOLT-4) | GI50 (OVCAR-3) | GI50 (T47D) | GI50 (A549)
O=C(CC(O)(C(F)(F)F)C(F)(F)Cl)CC(O)(C(F)(F)F)C(F)(F)Cl (stereo not given) | 2.22 µM (inactive) | 1.88 µM (inactive) | 4.34 µM (inactive) | 2.36 µM (inactive) | 1.25 µM (inactive) | 1.64 µM (inactive) | > 10 µM (inactive) | 2.09 µM (inactive) | 2.07 µM (inactive) | 3.86 µM (inactive) | 1.14 µM (inactive) | 3.08 µM (inactive) | 2.4 µM (inactive) | 2.19 µM (inactive) | 1.42 µM (inactive) | 2.33 µM (inactive) | 6.27 µM (inactive) | 1.62 µM (inactive) | 1.49 µM (inactive) | 2.37 µM (inactive)
COc1ccc2c(c1)c(=O)c1c(NCCCN(C)CCCNc3ccc4c(=O)n(CCN(C)C)c(=O)n5c6ccc(OC)cc6c(=O)c3c45)ccc3c(=O)n(CCN(C)C)c(=O)n2c31 | < 0.01 µM (active) | < 0.01 µM (active) | 0.415 µM (active) | < 0.01 µM (active) | < 0.0324 µM (active) | < 0.0147 µM (active) | < 0.01 µM (active) | < 0.036 µM (active) | 0.105 µM (active) | < 0.01 µM (active) | 0.484 µM (active) | 0.119 µM (active) | < 0.0169 µM (active) | < 0.0149 µM (active) | < 0.01 µM (active) | < 0.01 µM (active) | < 0.01 µM (active) | 0.138 µM (active) | 0.619 µM (active) | < 0.01 µM (active)
O=[N+]([O-])c1ccc2c3c1[C@@H]1O[C@@H]1c1cccc(c1-3)[C@@H]1O[C@H]21 | 14.6 µM (inactive) | 4.08 µM (inactive) | 3.1 µM (inactive) | 26.6 µM (inactive) | 3.94 µM (inactive) | 7.91 µM (inactive) | 4.21 µM (inactive) | 10.2 µM (inactive) | 3.1 µM (inactive) | 2.45 µM (inactive) | 3.49 µM (inactive) | 7.78 µM (inactive) | 11 µM (inactive) | 2.08 µM (inactive) | 3.35 µM (inactive) | 3.48 µM (inactive) | 4.69 µM (inactive) | 3.05 µM (inactive) | 3.35 µM (inactive) | 6.76 µM (inactive)
COc1ccc(C(=O)N(Cc2cccnc2)C(=S)N(Cc2cccnc2)C(=O)c2ccc(OC)cc2)cc1 | 40.3 µM (inactive) | 55.2 µM (inactive) | > 100 µM (inactive) | > 100 µM (inactive) | > 100 µM (inactive) | > 100 µM (inactive) | > 100 µM (inactive) | 35 µM (inactive) | > 100 µM (inactive) | > 100 µM (inactive) | > 100 µM (inactive) | > 100 µM (inactive) | 57.8 µM (inactive) | 62.8 µM (inactive) | 37.4 µM (inactive) | > 100 µM (inactive) | > 100 µM (inactive) | > 100 µM (inactive) | > 100 µM (inactive) | > 100 µM (inactive)
COc1ccc(C(=O)N2CCN(c3ccc4[nH]c(=O)oc4c3)CC2)cc1 | > 100 µM (inactive) | > 100 µM (inactive) | > 100 µM (inactive) | > 100 µM (inactive) | > 100 µM (inactive) | > 100 µM (inactive) | 92.5 µM (inactive) | > 100 µM (inactive) | 58.5 µM (inactive) | > 100 µM (inactive) | 48.5 µM (inactive) | > 100 µM (inactive) | > 100 µM (inactive) | > 100 µM (inactive) | 84.1 µM (inactive) | > 100 µM (inactive) | > 100 µM (inactive) | > 100 µM (inactive) | > 100 µM (inactive) | > 100 µM (inactive)
Cc1ccc(C2=NN=C3C(c4ccccc4)=Nc4ccccc4N3C2)cc1 | 16.9 µM (inactive) | 6.49 µM (inactive) | > 38 µM (inactive) | 12.9 µM (inactive) | 25.7 µM (inactive) | 11.8 µM (inactive) | 1.56 µM (inactive) | 9.98 µM (inactive) | 9.16 µM (inactive) | 1.88 µM (inactive) | 5.38 µM (inactive) | 0.348 µM (active) | 12 µM (inactive) | 16.3 µM (inactive) | 3.18 µM (inactive) | 11.6 µM (inactive) | 1.34 µM (inactive) | 2.61 µM (inactive) | 27.2 µM (inactive) | 27.7 µM (inactive)
CCOC(=O)C1(C(=O)OCC)Nc2cccnc2N(C)N1 | > 100 µM (inactive) | 20.8 µM (inactive) | 21.9 µM (inactive) | 18.4 µM (inactive) | 20.5 µM (inactive) | 22.8 µM (inactive) | 37.1 µM (inactive) | 35.5 µM (inactive) | > 100 µM (inactive) | 18.5 µM (inactive) | 48.1 µM (inactive) | 20.9 µM (inactive) | > 100 µM (inactive) | 18.9 µM (inactive) | 17.7 µM (inactive) | 14.7 µM (inactive) | 12.4 µM (inactive) | 20.5 µM (inactive) | 20.1 µM (inactive) | 96.8 µM (inactive)
